Assay results from patent publication US20230183239A1, “ECTONUCLEOTIDE PYROPHOSPHATASE-PHOSPHODIESTERASE 1 (ENPP-1) INHIBITORS AND USES THEREOF” (AbbVie Inc., priority 2017, published 2023).

These compounds were tested against T1, ENPP1 (Homo sapiens, UniProt P22413) (assay: Indirect quantitation of 2',3'-cGAMP hydrolysis (AMP-Glo Assay kit)). Settings: cGAMP substrate; Ki from IC50 by Cheng-Prusoff; read-out: ENPP1 Inhibition -cGAMP: Ki.
T1 sequence (P22413 1-925): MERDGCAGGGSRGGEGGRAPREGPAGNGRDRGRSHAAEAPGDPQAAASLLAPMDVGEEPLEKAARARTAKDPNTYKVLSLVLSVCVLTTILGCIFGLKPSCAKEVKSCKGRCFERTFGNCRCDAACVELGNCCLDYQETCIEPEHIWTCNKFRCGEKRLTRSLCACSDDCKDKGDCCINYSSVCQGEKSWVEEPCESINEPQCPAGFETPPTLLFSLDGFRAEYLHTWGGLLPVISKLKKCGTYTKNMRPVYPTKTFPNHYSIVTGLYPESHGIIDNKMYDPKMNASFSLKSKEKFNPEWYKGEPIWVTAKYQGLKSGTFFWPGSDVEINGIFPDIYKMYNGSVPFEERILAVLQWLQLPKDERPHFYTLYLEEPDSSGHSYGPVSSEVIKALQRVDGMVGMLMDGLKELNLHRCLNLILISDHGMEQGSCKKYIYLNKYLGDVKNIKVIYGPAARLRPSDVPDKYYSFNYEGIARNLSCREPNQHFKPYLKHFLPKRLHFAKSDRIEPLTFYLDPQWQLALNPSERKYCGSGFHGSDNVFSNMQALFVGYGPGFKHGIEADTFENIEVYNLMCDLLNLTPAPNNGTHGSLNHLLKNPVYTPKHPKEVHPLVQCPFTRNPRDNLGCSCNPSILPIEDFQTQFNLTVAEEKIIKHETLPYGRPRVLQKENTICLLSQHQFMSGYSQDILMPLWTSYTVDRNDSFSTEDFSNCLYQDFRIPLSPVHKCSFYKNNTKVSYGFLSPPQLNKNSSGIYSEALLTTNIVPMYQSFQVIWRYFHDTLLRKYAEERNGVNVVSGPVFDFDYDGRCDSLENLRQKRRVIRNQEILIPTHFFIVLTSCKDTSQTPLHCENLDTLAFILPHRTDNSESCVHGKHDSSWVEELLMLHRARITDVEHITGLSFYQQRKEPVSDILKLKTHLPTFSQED
Type: biochemical

| Ki | Structure (SMILES) |
| --- | --- |
| > 1000 nM | COc1ccc2c(-c3ccc(CNS(N)(=O)=O)cc3OC)ccnc2c1 [Example 383, N-(3-methoxy-4-(7-methoxyquinolin-4-yl)benzyl)sulfamide] |
| > 1000 nM | COc1cc2ncnc(N3CCc4c(cccc4S(=O)(=O)N4CCN(C)CC4)C3)c2cc1OC [Example 41, 6,7-dimethoxy-4-(5-((4-methylpiperazin-1-yl)sulfonyl)-3,4-dihydroisoquinolin-2(1H)-yl)quinazoline] |
| > 1000 nM | COc1cc2ncnc(Nc3ccc(CNS(N)(=O)=O)cc3)c2cc1OC [Example 234, N-(4-((6,7-dimethoxyquinazolin-4-yl)amino)benzyl)sulfamide] |
| > 1000 nM | Cc1ncnc(N2CCC(NS(N)(=O)=O)CC2)c1C [Example 39, N-(1-(5,6-dimethylpyrimidin-4-yl)piperidin-4-yl)sulfamide] |
| > 1000 nM | COc1cc2ncc(-c3ccc(CNS(N)(=O)=O)cc3)nc2cc1OC [Example 278, N-(4-(6,7-dimethoxyquinoxalin-2-yl)benzyl)sulfamide] |
| < 100 nM | COc1ccc2c(Oc3ccc(NS(N)(=O)=O)cn3)ccnc2c1 [Example 320, N-(6-((7-methoxyquinolin-4-yl)oxy)pyridin-3-yl)sulfamide] |
| 100 to 1000 nM | COc1cc2ncnc(N3CCC(CCNS(=O)(=O)c4ccccn4)CC3)c2cc1OC [Example 155, N-(2-(1-(6,7-dimethoxyquinazolin-4-yl)piperidin-4-yl)ethyl)pyridine-2-sulfonamide] |
| > 1000 nM | COc1cc2ncnc(N3CCC(CNc4nc5ccccc5[nH]4)CC3)c2cc1OC [Example 251, N-((1-(6,7-dimethoxyquinazolin-4-yl)piperidin-4-yl)methyl)-1H-benzo[d]imidazol-2-amine] |
| > 1000 nM | CNS(=O)(=O)NCCC1CCN(c2ncnc3cc(OC)c(OC)cc23)CC1 [Example 168, 2-(1-(6,7-dimethoxyquinazolin-4-yl)piperidin-4-yl)ethan-1-amino(N-methyl)sulfonamide] |
| > 1000 nM | COc1cc2ncnc(NCc3ccc(N4CCNS4(=O)=O)cc3)c2cc1OC [Example 228, 2-(4-(((6,7-dimethoxyquinazolin-4-yl)amino)methyl)phenyl)-1,2,5-thiadiazolidine 1,1-dioxide] |
| 100 to 1000 nM | Cn1ncc2c(N3CCC(CCNS(N)(=O)=O)CC3)ccnc21 [Example 135, N-(2-(1-(1-methyl-1H-pyrazolo[3,4-b]pyridin-4-yl)piperidin-4-yl)ethyl)sulfamide] |
| 100 to 1000 nM | COc1cc2nccc(-c3ccc(CNS(N)(=O)=O)cc3)c2cn1 [Example 415, N-(4-(7-methoxy-1,6-naphthyridin-4-yl)benzyl)sulfamide] |
| > 1000 nM | COc1cc2nc(-c3ccccc3)nc(N3CCC(CCNS(N)(=O)=O)CC3)c2cc1OC [Example 8, N-(2-(1-(6,7-dimethoxy-2-phenylquinazolin-4-yl)piperidin-4-yl)ethyl)sulfamide] |
| 100 to 1000 nM | COc1cc2ncnc(N3CCC(CCN(C)C)CC3)c2cc1OC [Example 115, 2-(1-(6,7-dimethoxyquinazolin-4-yl)piperidin-4-yl)-N,N-dimethylethan-1-amine] |
| > 1000 nM | COc1cc2ncnc(Nc3ccc(CC(=O)O)cc3)c2cc1OC [Example 332, 2-(4-((6,7-dimethoxyquinazolin-4-yl)amino)phenyl)acetic acid] |
| > 1000 nM | CNC(=O)c1cc(Oc2ccc(NS(N)(=O)=O)cc2)ccn1 [Example 127, N-methyl-4-(4-(sulfamoylamino)phenoxy)picolinamide] |
| > 1000 nM | COc1cc2ncnc(NC(C)(C)c3ccc(NS(N)(=O)=O)cc3)c2cc1OC [Example 287, N-(4-(2-((6,7-dimethoxyquinazolin-4-yl)amino)propan-2-yl)phenyl)sulfamide] |
| > 1000 nM | COc1cc(C#N)c(C(=O)N2CCC(CCNS(N)(=O)=O)CC2)cc1OC [Example 129, N-(2-(1-(2-cyano-4,5-dimethoxybenzoyl)piperidin-4-yl)ethyl)sulfamide] |
| < 100 nM | COc1ccc2c(Oc3ccc(N(C)S(N)(=O)=O)cc3)ccnc2c1 [Example 77, N-(4-((7-methoxyquinolin-4-yl)oxy)phenyl)-N-methylsulfamide] |
| > 1000 nM | Cc1cc(N2CCC(CCNS(N)(=O)=O)CC2)ncn1 [Example 16, N-(2-(1-(6-methylpyrimidin-4-yl)piperidin-4-yl)ethyl)sulfamide] |
| > 1000 nM | COc1ccc2c(-c3ccc4c(c3)CCN(S(N)(=O)=O)C4)ccnc2c1 [Example 366, 6-(7-methoxyquinolin-4-yl)-3,4-dihydroisoquinoline-2(1H)-sulfonamide] |
| > 1000 nM | COc1cc2ncc(-c3ccc4c(c3)CN(S(N)(=O)=O)CC4)nc2cc1OC [Example 295, 7-(6,7-dimethoxyquinoxalin-2-yl)-3,4-dihydroisoquinoline-2(1H)-sulfonamide] |
| > 1000 nM | COc1ccc(S(=O)(=O)N2CCN(CCO)CC2)cc1OC [Example 340, 2-(4-((3,4-dimethoxyphenyl)sulfonyl)piperazin-1-yl)ethan-1-ol] |
| > 1000 nM | COc1ccc2c(-c3cc4c(cc3F)CCN(S(N)(=O)=O)C4)ccnc2c1 [Example 409, 6-fluoro-7-(7-methoxyquinolin-4-yl)-3,4-dihydroisoquinoline-2(1H)-sulfamide] |

Second part, the compound before the results:

| Structure (SMILES) | Ki |
| --- | --- |
| NS(=O)(=O)NCCC1CCN(C(=O)c2ccccc2)CC1 [Example 50, N-(2-(1-(benzoyl)piperidin-4-yl)ethyl)sulfamide] | > 1000 nM |
| COc1ccc2c(c1)OCC(=O)N2Cc1ccc(NS(N)(=O)=O)cc1 [Example 401, N-(4-((7-methoxy-3-oxo-2,3-dihydro-4H-benzo[b][1,4]oxazin-4-yl)methyl)phenyl)sulfamide] | > 1000 nM |
| COc1ccc2c(Oc3ccc4c(c3)CCC(=O)N4)ccnc2c1 [Example 318, 6-((7-methoxyquinolin-4-yl)oxy)-3,4-dihydroquinolin-2(1H)-one] | > 1000 nM |
| COc1ccc2c(Oc3ccc(NS(N)(=O)=O)c(OC)c3)ccnc2c1 [Example 78, N-(2-methoxy-4-((7-methoxyquinolin-4-yl)oxy)phenyl)sulfamide] | < 100 nM |
| COc1cc2nccc(N3CCC4(CCNC4=O)CC3)c2cc1OC [Example 187, 8-(6,7-dimethoxyquinolin-4-yl)-2,8-diazaspiro[4.5]decan-1-one] | > 1000 nM |
| COc1ccc2c(-c3ccc(CNS(N)(=O)=O)cc3C)ccnc2c1 [Example 328, N-(4-(7-methoxyquinolin-4-yl)-3-methylbenzyl)sulfamide] | 100 to 1000 nM |
| COc1cc2c(Oc3ccc(NS(N)(=O)=O)cc3)ccnc2cn1 [Example 411, N-(4-((6-methoxy-1,7-naphthyridin-4-yl)oxy)phenyl)sulfamide] | > 1000 nM |
| COc1cc2c(=O)ccn(Cc3ccc(NS(N)(=O)=O)cc3)c2cc1OC [Example 151, N-(4-((6,7-dimethoxy-4-oxoquinolin-1 (4H)-yl)methyl)phenyl) sulfamide] | < 100 nM |
| N#Cc1cnc2cc3c(cc2c1N1CCC(CCNS(N)(=O)=O)CC1)OCO3 [Example 221, N-(2-(1-(7-cyano-[1,3]dioxolo[4,5-g]quinolin-8-yl)piperidin-4-yl)ethyl)sulfamide] | > 1000 nM |
| COc1cnc2c(-c3ccc(CNS(N)(=O)=O)cc3)ccnc2c1 [Example 369, N-(4-(7-methoxy-1,5-naphthyridin-4-yl)benzyl)sulfamide] | > 1000 nM |
| COc1cc2ccn(-c3ccc(CNS(N)(=O)=O)cc3)c2cc1OC [Example 186, N-(4-(5,6-dimethoxy-1H-indol-1-yl)benzyl)sulfamide] | > 1000 nM |
| COc1ccc2c(Oc3ccc(NS(N)(=O)=O)cc3Cl)ccnc2c1 [Example 329, N-(3-chloro-4-((7-methoxyquinolin-4-yl)oxy)phenyl)sulfamide] | 100 to 1000 nM |
| COc1cc2nc(N(C)C)nc(N3CCC(CCNC=O)CC3)c2cc1OC [Example 118, N-(2-(1-(2-(dimethylamino)-6,7-dimethoxyquinazolin-4-yl)piperidin-4-yl)ethyl)formamide] | > 1000 nM |
| COc1cc2ncnc(N3CCC(CCNS(=O)(=O)N(C)C)CC3)c2cc1OC [Example 143, 2-(1-(6,7-dimethoxyquinazolin-4-yl)piperidin-4-yl)ethan-1-amino(N,N-dimethyl)sulfonamide] | > 1000 nM |
| COc1ccc(-c2cc(N3CCC(NS(N)(=O)=O)CC3)ncn2)cc1OC [Example 36, N-(1-(6-(3,4-dimethoxyphenyl)pyrimidin-4-yl)piperidin-4-yl)sulfamide] | > 1000 nM |
| COc1cc2ncnc(NC(=O)c3ccc(NS(N)(=O)=O)cc3)c2cc1OC [Example 188, N-(6,7-dimethoxyquinazolin-4-yl)-4-(sulfamoylamino)benzamide] | 100 to 1000 nM |
| COc1ccc2c(Oc3ccc(NS(N)(=O)=O)cc3)ncnc2c1 [Example 322, N-(4-((7-methoxyquinazolin-4-yl)oxy)phenyl)sulfamide] | < 100 nM |
